# Molecular target: T1, PDE4B (human recombinant) (Homo sapiens, UniProt Q07343)
# T1 construct: made in house
# Assay: Inhibition of PDE4B activity: SPA and/or Fluorescence Polarisation (FP) assay
# Type: biochemical
# Conditions: one reading (n=1) or average of 2 or more readings, read-out: PDE4B pIC50 (±about 0.5) (converted)
# Method: The ability of compounds to inhibit catalytic activity at PDE4B or 4D (human recombinant), PDE3 (from bovine aorta), PDE5 (human recombinant) or PDE6 (from bovine retina) can optionally be determined by Scintillation Proximity Assay (SPA) in a 96-well format.
# The enzyme concentration is adjusted so that no more than 20% hydrolysis of the substrate defined below occurs in control wells without compound, during the incubation. For the PDE3, PDE4B and PDE4D assays, [5′,8-3H]Adenosine 3′,5′-cyclic phosphate (Amersham Pharmacia Biotech, code TRK.559; or Amersham Biosciences UK Ltd, Pollards Wood, Chalfont St Giles, Buckinghamshire HP8 4SP, UK) is added to give 0.05 uCi per well and about 10 nM final concentration. […] Plates containing assay mixture, suitably approx. 100 ul volume of assay mixture, are mixed on an orbital shaker for 5 minutes and incubated at ambient temperature for 1 hour. Phosphodiesterase SPA beads (Amersham Pharmacia Biotech, code RPNQ 0150) are added (about 1 mg per well) to terminate the assay. Plates are sealed and shaken and allowed to stand at ambient temperature for 35 minutes to 1 hour (suitably 35 minutes) to allow the beads to settle. […] Curves are analysed using ActivityBase and XLfit (ID Business Solutions Limited, 2 Ocean Court, Surrey Research Park, Guildford, Surrey GU2 7QB, United Kingdom). Results are expressed as pIC50 values.
# The ability of compounds to inhibit catalytic activity at PDE4B (human recombinant) or PDE4D (human recombinant) can optionally be determined by IMAP Fluorescence Polarisation (FP) assay (IMAP Explorer kit, available from Molecular Devices Corporation, Sunnydale, Calif., USA; Molecular Devices code: R8062) in 384-well format.
# The IMAP FP assay is able to measure PDE activity in an homogenous, non-radioactive assay format. The FP assay uses the ability of immobilised trivalent metal cations, coated onto nanoparticles (tiny beads), to bind the phosphate group of Fl-AMP that is produced on the hydrolysis of fluorescein-labelled (Fl) cyclic adenosine mono-phosphate (Fl-cAMP) to the non-cyclic Fl-AMP form. […] Binding of Fl-AMP product to the beads (coated with the immobilised trivalent cations) slows the rotation of the bound Fl-AMP and leads to an increase in the fluorescence polarisation ratio of parallel to perpendicular light. Inhibition of the PDE reduces/inhibits this signal increase.
# The enzyme level is set by experimentation so that reaction is linear throughout the incubation. Fluorescein adenosine 3′,5′-cyclic phosphate (from Molecular Devices Corporation, Molecular Devices code: R7091) is added to give about 40 nM final concentration (final assay volume usually ca. 20-40 ul, suitably ca. 20 ul). Plates are mixed on an orbital shaker for 10 seconds and incubated at ambient temperature for 40 minutes. IMAP binding reagent (as described above, from Molecular Devices Corporation, Molecular Devices code: R7207) is added (60 ul of a 1 in 400 dilution in binding buffer of the kit stock solution) to terminate the assay. Plates are allowed to stand at ambient temperature for 1 hour. The Fluorescence Polarisation (FP) ratio of parallel to perpendicular light is measured using an Analyst™ plate reader (from Molecular Devices Corporation). […] Curves are analysed using ActivityBase and XLfit (ID Business Solutions Limited, 2 Ocean Court, Surrey Research Park, Guildford, Surrey GU2 7QB, United Kingdom). Results are expressed as plC50 values.
# T1 sequence (Q07343 1-564 isoform Q07343-2): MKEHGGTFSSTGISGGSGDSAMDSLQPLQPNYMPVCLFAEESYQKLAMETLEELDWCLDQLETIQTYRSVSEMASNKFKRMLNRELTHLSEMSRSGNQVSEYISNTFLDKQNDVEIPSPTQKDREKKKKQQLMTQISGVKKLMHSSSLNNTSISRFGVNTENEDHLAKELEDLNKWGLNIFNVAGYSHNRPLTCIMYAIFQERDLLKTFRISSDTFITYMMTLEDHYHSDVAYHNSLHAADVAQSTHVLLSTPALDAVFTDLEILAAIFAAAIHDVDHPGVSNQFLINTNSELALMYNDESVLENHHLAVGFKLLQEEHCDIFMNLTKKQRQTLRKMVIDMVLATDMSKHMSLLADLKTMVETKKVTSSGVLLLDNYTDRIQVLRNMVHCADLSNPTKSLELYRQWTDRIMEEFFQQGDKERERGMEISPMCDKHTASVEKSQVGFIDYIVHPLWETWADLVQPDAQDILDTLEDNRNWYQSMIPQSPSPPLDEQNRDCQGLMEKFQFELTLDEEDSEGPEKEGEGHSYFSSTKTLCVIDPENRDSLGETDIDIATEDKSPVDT
row,SMILES,IC50
1,"CCc1nc2c(cnn2CC)c(NC2CCOCC2)c1CNC(=O)c1cc(S(=O)(=O)NC2CCC2)ccc1OC [Example 186, 5-[(cyclobutylamino)sulfonyl]-N-{[1,6-diethyl-4-(tetrahydro-2H-pyran-4-ylamino)-1H-pyrazolo[3,4-b]pyridin-5-yl]methyl}-2-(methyloxy)benzamide]",0.01 to 0.1 nM
2,"CCc1nc2c(cnn2CC)c(NC2CCOCC2)c1CNC(=O)C1CCN(S(C)(=O)=O)CC1 [Example 341, N-{[1,6-diethyl-4-(tetrahydro-2H-pyran-4-ylamino)-1H-pyrazolo[3,4-b]pyridin-5-yl]methyl}-1-(methylsulfonyl)-4-piperidinecarboxamide]",0.126 to 1 nM
3,"CCc1nc2c(cnn2CC)c(NC2CCOCC2)c1CNC(=O)c1cc(C(=O)N(C)c2ccccc2)ccc1OC [Example 182, N˜3˜-{[1,6-diethyl-4-(tetrahydro-2H-pyran-4-ylamino)-1H-pyrazolo[3,4-b]pyridin-5-yl]methyl}-N˜1˜-methyl-4-(methyloxy)-N-˜1˜-phenyl-1,3-benzenedicarboxamide]",0.01 to 0.1 nM
4,CCc1nc2c(cnn2CC)c(NC2CCOCC2)c1CNC(=O)NCc1ccccc1 [Example 200],0.126 to 1 nM
5,"CCc1nc2c(cnn2CC)c(NC2CCOCC2)c1CNC(=O)c1csc(C(F)(F)F)n1 [Example 339, N-{[1,6-diethyl-4-(tetrahydro-2H-pyran-4-ylamino)-1H-pyrazolo[3,4-b]pyridin-5-yl]methyl}-2-(trifluoromethyl)-1,3-thiazole-4-carboxamide]",0.01 to 0.1 nM
6,"CCc1nc2c(cnn2CC)c(NC2CCOCC2)c1CNC(=O)c1ccc(F)cc1F [Example 308, N-{[1,6-diethyl-4-(tetrahydro-2H-pyran-4-ylamino)-1H-pyrazolo[3,4-b]pyridin-5-yl]methyl}-2,4-difluorobenzamide]",0.126 to 1 nM
7,"CCc1nc2c(cnn2CC)c(NC2CCOCC2)c1CNC(=O)c1ccoc1C [Example 195, N-{[1,6-diethyl-4-(tetrahydro-2H-pyran-4-ylamino)-1H-pyrazolo[3,4-b]pyridin-5-yl]methyl}-2-methyl-3-furancarboxamide]",0.126 to 1 nM
8,"CCc1nc2c(cnn2CC)c(NC2CCOCC2)c1CNC(=O)c1ccco1 [Example 153, N-{[1,6-diethyl-4-(tetrahydro-2H-pyran-4-ylamino)-1H-pyrazolo[3,4-b]pyridin-5-yl]methyl}-2-furancarboxamide]",0.01 to 0.1 nM
9,"CCc1nc2c(cnn2CC)c(NC2CCOCC2)c1CNC(=O)c1cnc(C)s1 [Example 311, N-{[1,6-diethyl-4-(tetrahydro-2H-pyran-4-ylamino)-1H-pyrazolo[3,4-b]pyridin-5-yl]methyl}-2-methyl-1,3-thiazole-5-carboxamide]",0.01 to 0.1 nM
10,"CCc1nc2c(cnn2CC)c(NC2CCOCC2)c1CNC(=O)NCCc1ccccc1 [Example 202, N-{[1,6-diethyl-4-(tetrahydro-2H-pyran-4-ylamino)-1H-pyrazolo[3,4-b]pyridin-5-yl]methyl}-N′-(2-phenylethyl)urea]",0.126 to 1 nM
11,"CCn1ncc2c(NC3CCOCC3)c(CNC(=O)c3cnc(C)s3)c(C(F)(F)F)nc21 [Example 349, N-{[1-Ethyl-4-(tetrahydro-2H-pyran-4-ylamino)-6-(trifluoromethyl)-1H-pyrazolo[3,4-b]pyridin-5-yl]methyl}-2-methyl-1,3-thiazole-5-carboxamide]",0.126 to 1 nM
12,"CCc1nc2c(cnn2CC)c(NC2CCOCC2)c1CNC(=O)c1cccc(N2CCCC2=O)c1 [Example 149, N-{[1,6-diethyl-4-(tetrahydro-2H-pyran-4-ylamino)-1H-pyrazolo[3,4-b]pyridin-5-yl]methyl}-3-(2-oxo-1-pyrrolidinyl)benzamide]",0.01 to 0.1 nM

# Results, then the compound that gave them:
row,IC50,SMILES
1,0.01 to 0.1 nM,"CCc1nc2c(cnn2CC)c(NC2CCN(C(N)=O)CC2)c1CNC(=O)c1ccc2c(=O)[nH][nH]c2c1 [Example 248, N-[(4-{[1-(aminocarbonyl)-4-piperidinyl]amino}-1,6-diethyl-1H-pyrazolo[3,4-b]pyridin-5-yl)methyl]-3-oxo-2,3-dihydro-1H-indazole-6-carboxamide]"
2,0.126 to 1 nM,"CCn1ncc2c(NC3CCN(C(N)=O)CC3)c(CNC(=O)c3ccc(S(C)(=O)=O)cc3)c(C)nc21 [Example 259, 4-({1-ethyl-6-methyl-5-[({[4-(methylsulfonyl)phenyl]carbonyl}amino)methyl]-1H-pyrazolo[3,4-b]pyridin-4-yl}amino)-1-piperidinecarboxamide]"
3,0.01 to 0.1 nM,"CCc1nc2c(cnn2CC)c(NC2CCN(C(N)=O)CC2)c1CNC(=O)c1ccc(N2CCCC2=O)cc1 [Example 209, 4-({1,6-diethyl-5-[({[4-(2-oxo-1-pyrrolidinyl)phenyl]carbonyl}amino)methyl]-1H-pyrazolo[3,4-b]pyridin-4-yl}amino)-1-piperidinecarboxamide]"
4,0.01 to 0.1 nM,"CCn1ncc2c(NC3CCN(C(N)=O)CC3)c(CNC(=O)c3ccc(C(=O)NC)cc3)c(C)nc21 [Example 268, N-[(4-{[1-(aminocarbonyl)-4-piperidinyl]amino}-1-ethyl-6-methyl-1H-pyrazolo[3,4-b]pyridin-5-yl)methyl]-N′-methyl-1,4-benzenedicarboxamide]"
5,0.126 to 1 nM,"CCn1ncc2c(NC3CCOCC3)c(CNC(=O)c3cnc(C)s3)c(C)nc21 [Example 322, N-{[1-ethyl-6-methyl-4-(tetrahydro-2H-pyran-4-ylamino)-1H-pyrazolo[3,4-b]pyridin-5-yl]methyl}-2-methyl-1,3-thiazole-5-carboxamide]"
6,0.01 to 0.1 nM,"CCn1ncc2c(NC3CCOCC3)c(CNC(=O)c3cccc(NC(C)=O)c3)c(C)nc21 [Example 280, 3-(acetylamino)-N-{[1-ethyl-6-methyl-4-(tetrahydro-2H-pyran-4-ylamino)-1H-pyrazolo[3,4-b]pyridin-5-yl]methyl}benzamide]"
7,0.01 to 0.1 nM,"CCc1nc2c(cnn2CC)c(NC2CCOCC2)c1CNC(=O)c1ccc(NC(C)=O)cc1O [Example 251, 4-(acetylamino)-N-{[1,6-diethyl-4-(tetrahydro-2H-pyran-4-ylamino)-1H-pyrazolo[3,4-b]pyridin-5-yl]methyl}-2-hydroxybenzamide]"
8,0.01 to 0.1 nM,"CCc1nc2c(cnn2CC)c(NC2CCN(C(N)=O)CC2)c1CNC(=O)c1ccc(NC(C)=O)c2c1OCC2 [Example 304, 4-({5-[({[4-(acetylamino)-2,3-dihydro-1-benzofuran-7-yl]carbonyl}amino)methyl]-1,6-diethyl-1H-pyrazolo[3,4-b]pyridin-4-yl}amino)-1-piperidinecarboxamide]"
9,0.126 to 1 nM,"CCn1ncc2c(NC3CCOCC3)c(CNC(=O)c3cccc(N4CCCC4=O)c3)c(C)nc21 [Example 216, N-{[1-ethyl-6-methyl-4-(tetrahydro-2H-pyran-4-ylamino)-1H-pyrazolo[3,4-b]pyridin-5-yl]methyl}-3-(2-oxo-1-pyrrolidinyl)benzamide]"
10,0.01 to 0.1 nM,"CCn1ncc2c(NC3CCN(C(N)=O)CC3)c(CNC(=O)c3ccc(C)cc3O)c(C)nc21 [Example 265, 4-{[1-ethyl-5-({[(2-hydroxy-4-methylphenyl)carbonyl]amino}methyl)-6-methyl-1H-pyrazolo[3,4-b]pyridin-4-yl]amino}-1-piperidinecarboxamide]"
11,0.126 to 1 nM,"CCn1ncc2c(NC3CCOCC3)c(CNC(=O)c3ccsc3)c(C)nc21 [Example 227, N-{[1-ethyl-6-methyl-4-(tetrahydro-2H-pyran-4-ylamino)-1H-pyrazolo[3,4-b]pyridin-5-yl]methyl}-3-thiophenecarboxamide]"
12,0.01 to 0.1 nM,"CCc1nc2c(cnn2CC)c(NC2CCN(C(N)=O)CC2)c1CNC(=O)c1cccc(NC(C)=O)c1 [Example 244, 4-({5-[({[3-(acetylamino)phenyl]carbonyl}amino)methyl]-1,6-diethyl-1H-pyrazolo[3,4-b]pyridin-4-yl}amino)-1-piperidinecarboxamide]"

# Source: patent publication US20090131431A1, “Pyrazolo[3,4-b]pyridine compounds, and their use as a PDE4 inhibitors” (priority 2005, published 2009)
